Measured values published in PMC11882969 (Nature Communications, 2025).
Where “and” joins values, the source holds several entries; their conditions need not be identical. Equal values may be shown once. Read-outs that look alike come from different tables or passages of the source.

Tests used:
CB1 (rCB1) = CB1 (rCB1) (Rattus norvegicus, UniProt P20272); test: Radioligand competition binding, [3H]-CP-55,940, rat brain membranes
hCB1 = hCB1 (Homo sapiens, UniProt P21554); test: bioSensAll ebBRET signaling profiling, hCB1; assay type: cell-based; design: host or cells: HEK293SL cells, transient PEI transfection; conditions: for Gi1 hCB1 response: Gi1 biosensor; for Gi1 hCB1 / GoB hCB1: single replicate values, FigS6a; for EC50: read-out: EC50 [95% CI]; for Emax: normalized to CP-55,940
Chain of hCB1 (P21554 whole entry): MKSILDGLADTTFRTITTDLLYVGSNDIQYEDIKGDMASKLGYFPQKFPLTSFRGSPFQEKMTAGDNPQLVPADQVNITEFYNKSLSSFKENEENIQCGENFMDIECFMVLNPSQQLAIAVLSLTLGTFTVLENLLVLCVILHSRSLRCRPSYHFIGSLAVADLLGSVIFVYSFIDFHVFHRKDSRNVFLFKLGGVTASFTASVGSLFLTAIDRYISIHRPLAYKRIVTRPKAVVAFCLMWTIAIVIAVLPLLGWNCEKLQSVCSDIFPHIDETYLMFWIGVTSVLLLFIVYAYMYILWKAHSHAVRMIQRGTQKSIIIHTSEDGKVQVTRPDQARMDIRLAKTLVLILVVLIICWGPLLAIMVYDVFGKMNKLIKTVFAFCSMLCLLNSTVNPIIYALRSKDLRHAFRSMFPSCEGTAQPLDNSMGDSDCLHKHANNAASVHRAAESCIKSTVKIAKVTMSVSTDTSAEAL

Chain of CB1 (rCB1) (P20272 whole entry): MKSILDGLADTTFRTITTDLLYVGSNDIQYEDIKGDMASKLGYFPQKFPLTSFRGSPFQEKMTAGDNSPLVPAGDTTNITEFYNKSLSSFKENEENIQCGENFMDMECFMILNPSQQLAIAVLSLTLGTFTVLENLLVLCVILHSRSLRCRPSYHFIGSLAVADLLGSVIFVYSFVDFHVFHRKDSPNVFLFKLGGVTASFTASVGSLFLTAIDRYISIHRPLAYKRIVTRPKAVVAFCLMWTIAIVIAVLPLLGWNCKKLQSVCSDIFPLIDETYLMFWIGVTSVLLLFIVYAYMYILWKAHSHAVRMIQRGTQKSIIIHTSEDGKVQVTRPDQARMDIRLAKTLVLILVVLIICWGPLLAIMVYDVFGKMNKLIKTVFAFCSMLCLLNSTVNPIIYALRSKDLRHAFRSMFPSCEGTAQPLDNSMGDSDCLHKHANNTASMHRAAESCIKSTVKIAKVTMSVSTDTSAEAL

CC(=O)C(c1cccs1)N(C)C(=O)c1cc(C)n(-c2cccc(C(F)(F)F)c2)n1 (stereo not shown) [‘6829]
pKi [95% CI] (CB1 (rCB1); rCB1): 6.0 [5.8 – 6.2]
Ki (CB1 (rCB1); read-out: Ki [95% CI], rCB1, [3H]-CP-55,940): 1050 nM
Gi1 hCB1 response (hCB1; Log [Compound] (M) -4.22186): 50.5929
Gi1 hCB1 response (hCB1; Log [Compound] (M) -4.63927): 80.4274
Gi1 hCB1 response (hCB1; Log [Compound] (M) -5.05788): 60.8884
Gi1 hCB1 response (hCB1; Log [Compound] (M) -5.47381): 50.1453
Gi1 hCB1 response (hCB1; Log [Compound] (M) -5.89285): 25.0333
Gi1 hCB1 response (hCB1; Log [Compound] (M) -6.31878): 14.2679
Gi1 hCB1 response (hCB1; Log [Compound] (M) -6.72585): 9.501
Gi1 hCB1 response (hCB1; Log [Compound] (M) -7.14267): -0.2577
Gi1 hCB1 response (hCB1; Log [Compound] (M) -7.55284): -0.3025
Gi1 hCB1 response (hCB1; Log [Compound] (M) -8): -3.011
Gi1 hCB1 response (hCB1; Log [Compound] (M) -8.22186): 2.07
Gi1 hCB1 response (hCB1; Log [Compound] (M) -8.39794): -6.077
Gi1 hCB1 response (hCB1; Log [Compound] (M) -8.68787): 2.45
Gi1 hCB1 response (hCB1; Log [Compound] (M) -9.15521): 5.629
Gi1 hCB1 response (hCB1; Log [Compound] (M) -9.61989): -3.749
Gi1 hCB1 response (hCB1; Log [Compound] (M) -10.0969): -4.958
Gi1 hCB1 response (hCB1; Log [Compound] (M) -10.5529): -8.091
Gi1 hCB1 response (hCB1; Log [Compound] (M) -11.0177): -9.456
Gi1 hCB1 response (hCB1; Log [Compound] (M) -11.4949): -2.585
Gi1 hCB1 response (hCB1; Log [Compound] (M) -11.9208): -4.1073
Gi1 hCB1 response (hCB1; Log [Compound] (M) -12.3979): -11.8513
Gi1 hCB1 response (hCB1; Log [Compound] (M) -12.8861): -4.7116
Gi1 hCB1 response (hCB1; Log [Compound] (M) -13, individual replicate values): -0.3696 and -4.085
Gi1 hCB1 (hCB1; Log [Compound] (M) -4.22186): 59.6278
GoB hCB1 (hCB1; Log [Compound] (M) -4.22186): 46.0809
Gi1 hCB1 (hCB1; Log [Compound] (M) -4.63927): 49.4067
GoB hCB1 (hCB1; Log [Compound] (M) -4.63927): 48.6345
Gi1 hCB1 (hCB1; Log [Compound] (M) -5.05788): 40.28
GoB hCB1 (hCB1; Log [Compound] (M) -5.05788): 42.8439
Gi1 hCB1 (hCB1; Log [Compound] (M) -5.47381): 35.5317
GoB hCB1 (hCB1; Log [Compound] (M) -5.47381): 37.2331
Gi1 hCB1 (hCB1; Log [Compound] (M) -5.89285): 23.7381
GoB hCB1 (hCB1; Log [Compound] (M) -5.89285): 25.7777
Gi1 hCB1 (hCB1; Log [Compound] (M) -6.31878): 13.3781
GoB hCB1 (hCB1; Log [Compound] (M) -6.31878): 16.7141
Gi1 hCB1 (hCB1; Log [Compound] (M) -6.72585): 9.694
GoB hCB1 (hCB1; Log [Compound] (M) -6.72585): 6.7333
Gi1 hCB1 (hCB1; Log [Compound] (M) -7.14267): 3.188
GoB hCB1 (hCB1; Log [Compound] (M) -7.14267): 2.399
Gi1 hCB1 (hCB1; Log [Compound] (M) -7.55284): 5.377
GoB hCB1 (hCB1; Log [Compound] (M) -7.55284): 1.374
Gi1 hCB1 (hCB1; Log [Compound] (M) -8): 4.359
GoB hCB1 (hCB1; Log [Compound] (M) -8): 2.831
Gi1 hCB1 (hCB1; Log [Compound] (M) -8.22186): 1.1836
GoB hCB1 (hCB1; Log [Compound] (M) -8.22186): -4.488
Gi1 hCB1 (hCB1; Log [Compound] (M) -8.39794): 5.593
GoB hCB1 (hCB1; Log [Compound] (M) -8.39794): 1.554
Gi1 hCB1 (hCB1; Log [Compound] (M) -8.68787): 1.615
GoB hCB1 (hCB1; Log [Compound] (M) -8.68787): -3.931
Gi1 hCB1 (hCB1; Log [Compound] (M) -9.15521): 2.463
GoB hCB1 (hCB1; Log [Compound] (M) -9.15521): -1.036
Gi1 hCB1 (hCB1; Log [Compound] (M) -9.61989): 0.7057
GoB hCB1 (hCB1; Log [Compound] (M) -9.61989): -1.161
Gi1 hCB1 (hCB1; Log [Compound] (M) -10.0969): 1.353
GoB hCB1 (hCB1; Log [Compound] (M) -10.0969): -3.463
Gi1 hCB1 (hCB1; Log [Compound] (M) -10.5529): 1.137
GoB hCB1 (hCB1; Log [Compound] (M) -10.5529): 1.105
Gi1 hCB1 (hCB1; Log [Compound] (M) -11.0177): 3.142
GoB hCB1 (hCB1; Log [Compound] (M) -11.0177): -0.532
Gi1 hCB1 (hCB1; Log [Compound] (M) -11.4949): 2.879
GoB hCB1 (hCB1; Log [Compound] (M) -11.4949): 1.392
Gi1 hCB1 (hCB1; Log [Compound] (M) -11.9208): 3.126
GoB hCB1 (hCB1; Log [Compound] (M) -11.9208): 1.392
Gi1 hCB1 (hCB1; Log [Compound] (M) -12.3979): 4.159
GoB hCB1 (hCB1; Log [Compound] (M) -12.3979): 2.561
Gi1 hCB1 (hCB1; Log [Compound] (M) -12.8861): 3.496
GoB hCB1 (hCB1; Log [Compound] (M) -12.8861): 2.705
Gi1 hCB1 (hCB1; Log [Compound] (M) -13): 3.327 and 1.677
GoB hCB1 (hCB1; Log [Compound] (M) -13): -2.744 and -3.607
pEC50 [95% CI] (hCB1; hCB1 Gi1): 5.4 [5.0 – 5.6]
pEC50 [95% CI] (hCB1; hCB1 GoB): 6.0 [5.8 – 6.2]
pEC50 [95% CI] (hCB1; hCB1 Gz): 5.9 [6.0 – 6.2]
EC50 (hCB1; hCB1 Gi1): 4060 nM
EC50 (hCB1; hCB1 Gz): 1350 nM
Emax (hCB1; read-out: Emax [95% CI], hCB1 Gi1): 68%
Emax (hCB1; read-out: Emax [95% CI], hCB1 GoB): 49%
Emax (hCB1; read-out: Emax [95% CI], hCB1 Gz): 70%
